For 22 compounds, IC90 results are on record in US11390604B2 (Hoffmann-La Roche Inc., priority 2019, dated 2022).

Broadly, the IC90 is the concentration at which the effect reaches the 90% level.

Structures are written as SMILES. Counter-ions that a name gives are not always drawn.

The assay deals with Acinetobacter baumannii ATCC 17961. Description: Antimicrobial susceptibility testing: 90% growth inhibitory concentration (IC90) determination. The assay is classed as cell-based. The settings on record: ATCC17961, Acinetobacter baumannii ATCC 17961, Iso-Sensitest broth, read-out: ATCC 17961 IC90. A digest of the protocol:
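Growth was followed kinetically by OD600 at 20-min intervals for 16 h at 35±2 °C, with ~5×10^5 CFU/ml in Iso-Sensitest broth. Compounds were tested as twofold dilutions (e.g. 50–0.097 μM final). The concentration giving 90% inhibition of log-phase growth was reported.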
As to `C#CCn1cc(-c2cnc(C(=O)Nc3ccc(C(=O)N4CCN(C(=O)N5CCC(N)CC5)CC4)c(Cl)c3)n2C)c(C(F)(F)F)n1` [Example 84, N-[4-[4-(4-aminopiperidine-1-carbonyl)piperazine-1-carbonyl]-3-chlorophenyl]-1-methyl-5-[1-prop-2-ynyl-3-(trifluoromethyl)pyrazol-4-yl]imidazole-2-carboxamide], the IC90 came out at 191 nM.
Consider `C#CCn1cc(-c2cnc(C(=O)Nc3ccc(C(=O)N4CCN(C(=O)N5CCC[C@H](N)C5)CC4)c(Cl)c3)n2C)c(C(F)(F)F)n1` [Example 85, N-[4-[4-[(3S)-3-aminopiperidine-1-carbonyl]piperazine-1-carbonyl]-3-chlorophenyl]-1-methyl-5-[1-prop-2-ynyl-3-(trifluoromethyl)pyrazol-4-yl]imidazole-2-carboxamide], for which the IC90 worked out at 170 nM.
In the case of `C#CCn1cc(-c2cnc(C(=O)Nc3ccc(C(=O)N4CCN(C(=O)N5CC6CNC6C5)CC4)c(Cl)c3)n2C)c(C(F)(F)F)n1` (stereo not shown) [Example 86, N-[3-chloro-4-[4-(3,6-diazabicyclo[3.2.0]heptane-3-carbonyl)piperazine-1-carbonyl]phenyl]-1-methyl-5-[1-prop-2-ynyl-3-(trifluoromethyl)pyrazol-4-yl]imidazole-2-carboxamide], the IC90 is 203 nM.
Then `C#CCn1cc(-c2cnc(C(=O)Nc3ccc(C(=O)N4CCN(C(=O)N[C@H]5[C@@H]6CNC[C@@H]65)CC4)c(Cl)c3)n2C)c(C(F)(F)F)n1` [Example 87, 4-[2-chloro-4-[[1-methyl-5-[1-prop-2-ynyl-3-(trifluoromethyl)pyrazol-4-yl]imidazole-2-carbonyl]amino]benzoyl]-N-[rac-(1R,5S)-3-azabicyclo[3.1.0]hexan-6-yl]piperazine-1-carboxamide], with 216 nM; and `C#CCn1cc(-c2cnc(C(=O)Nc3ccc(C(=O)N4CCN(C(=O)N5C[C@@H]6C[C@H]5CN6)CC4)c(Cl)c3)n2C)c(C(F)(F)F)n1` [Example 88, N-[3-chloro-4-[4-[(1S,4S)-2,5-diazabicyclo[2.2.1]heptane-2-carbonyl]piperazine-1-carbonyl]phenyl]-1-methyl-5-[1-prop-2-ynyl-3-(trifluoromethyl)pyrazol-4-yl]imidazole-2-carboxamide], with 170 nM; and `C#CCn1cc(-c2cnc(C(=O)Nc3ccc(C(=O)N4CCN(C(=O)NC5CC6(CNC6)C5)CC4)c(Cl)c3)n2C)c(C(F)(F)F)n1` [Example 89, N-(2-azaspiro[3.3]heptan-6-yl)-4-[2-chloro-4-[[1-methyl-5-[1-prop-2-ynyl-3-(trifluoromethyl)pyrazol-4-yl]imidazole-2-carbonyl]amino]benzoyl]piperazine-1-carboxamide], with 235 nM.
For `C#CCn1cc(-c2cnc(C(=O)Nc3ccc(C(=O)N4CCN(C(=O)N5C[C@@H]6CNC[C@H]6C5)CC4)c(Cl)c3)n2C)c(C(F)(F)F)n1` [Example 90, N-[4-[4-[(3aS,6aS)-2,3,3a,4,6,6a-hexahydro-1H-pyrrolo[3,4-c]pyrrole-5-carbonyl]piperazine-1-carbonyl]-3-chlorophenyl]-1-methyl-5-[1-prop-2-ynyl-3-(trifluoromethyl)pyrazol-4-yl]imidazole-2-carboxamide], the IC90 was found to be 218 nM.
With `C#CCn1cc(-c2cnc(C(=O)Nc3ccc(C(=O)N4CCN(C(=O)N5CC6(CCN6)C5)CC4)c(Cl)c3)n2C)c(C(F)(F)F)n1` [Example 91, N-[3-chloro-4-[4-(1,6-diazaspiro[3.3]heptane-6-carbonyl)piperazine-1-carbonyl]phenyl]-1-methyl-5-[1-prop-2-ynyl-3-(trifluoromethyl)pyrazol-4-yl]imidazole-2-carboxamide], the IC90 was found to be 170 nM.
As for `C#CCn1cc(-c2cnc(C(=O)Nc3ccc(C(=O)N4CCN(C(=O)[C@H]5[C@@H]6CNC[C@@H]65)CC4)c(Cl)c3)n2C)c(C(F)(F)F)n1` [Example 92, N-[3-chloro-4-[4-[rac-(1R,5S)-3-azabicyclo[3.1.0]hexane-6-carbonyl]piperazine-1-carbonyl]phenyl]-1-methyl-5-[1-prop-2-ynyl-3-(trifluoromethyl)pyrazol-4-yl]imidazole-2-carboxamide;hydrochloride], the IC90 was 103 nM.
With `C#CCn1cc(-c2cnc(C(=O)Nc3ccc(C(=O)N[C@H]4C[C@@H](N)C4)c(Cl)c3)n2C)c(C(F)(F)F)n1` [Example 93, N-[4-[(3-aminocyclobutyl)carbamoyl]-3-chlorophenyl]-1-methyl-5-[1-prop-2-ynyl-3-(trifluoromethyl)pyrazol-4-yl]imidazole-2-carboxamide;hydrochloride], the IC90 is 557 nM.
Turning to `Cn1c(-c2cn(CC#N)nc2C(F)(F)F)cnc1C(=O)Nc1ccc(C(=O)N[C@H]2C[C@@H](N)C2)c(Cl)c1` [Example 94, N-[4-[(3-aminocyclobutyl)carbamoyl]-3-chlorophenyl]-5-[1-(cyanomethyl)-3-(trifluoromethyl)pyrazol-4-yl]-1-methylimidazole-2-carboxamide;2,2,2-trifluoroacetic acid], the IC90 was 176 nM.
For `C[C@@H](N)C(=O)N[C@H]1C[C@@H](NC(=O)c2ccc(NC(=O)c3ncc(-c4cn(CC#N)nc4C(F)(F)F)n3C)cc2Cl)C1` [Example 95, N-[4-[[3-[[(2R)-2-aminopropanoyl]amino]cyclobutyl]carbamoyl]-3-chlorophenyl]-5-[1-(cyanomethyl)-3-(trifluoromethyl)pyrazol-4-yl]-1-methylimidazole-2-carboxamide;2,2,2-trifluoroacetic acid], the IC90 is 422 nM.
On to `Cn1c(-c2cn(CC#N)nc2C(F)(F)F)cnc1C(=O)Nc1ccc(C(=O)N[C@H]2C[C@@H](NC(=O)[C@H]3CC[C@@H](N)C3)C2)c(Cl)c1` [Example 96, N-[4-[[3-[[(1S,3R)-3-aminocyclopentanecarbonyl]amino]cyclobutyl]carbamoyl]-3-chlorophenyl]-5-[1-(cyanomethyl)-3-(trifluoromethyl)pyrazol-4-yl]-1-methylimidazole-2-carboxamide;2,2,2-trifluoroacetic acid], for which the IC90 worked out at 498 nM.
Take `Cn1c(-c2cn(C3CC3)nc2C(F)(F)F)cnc1C(=O)Nc1ccc(C(=O)N[C@H]2C[C@@H](N)C2)c(Cl)c1` [Example 97, N-[4-[(3-aminocyclobutyl)carbamoyl]-3-chlorophenyl]-5-[1-cyclopropyl-3-(trifluoromethyl)pyrazol-4-yl]-1-methylimidazole-2-carboxamide]: the IC90 is 595 nM.
In the case of `Cn1c(-c2cn(CCC(F)(F)F)nc2C(F)(F)F)cnc1C(=O)Nc1ccc(C(=O)N2CCN(C(=O)C3CCNCC3)CC2)c(Cl)c1` [Example 98, N-[3-chloro-4-[4-(piperidine-4-carbonyl)piperazine-1-carbonyl]phenyl]-1-methyl-5-[3-(trifluoromethyl)-1-(3,3,3-trifluoropropyl)pyrazol-4-yl]imidazole-2-carboxamide;hydrochloride], the IC90 came to 362 nM.
With `Cn1c(-c2cn(CF)nc2C(F)(F)F)cnc1C(=O)Nc1ccc(C(=O)N2CCN(C(=O)C3CCNCC3)CC2)c(Cl)c1` [Example 99, N-[3-chloro-4-[4-(piperidine-4-carbonyl)piperazine-1-carbonyl]phenyl]-5-[1-(fluoromethyl)-3-(trifluoromethyl)pyrazol-4-yl]-1-methylimidazole-2-carboxamide;hydrochloride], the IC90 came out at 403 nM.
Turning to `Cn1c(-c2cn(Cc3ccn[nH]3)nc2C(F)(F)F)cnc1C(=O)Nc1ccc(C(=O)N2CCN(C(=O)C3CCNCC3)CC2)c(Cl)c1` [Example 100, N-[3-chloro-4-[4-(piperidine-4-carbonyl)piperazine-1-carbonyl]phenyl]-1-methyl-5-[1-(1H-pyrazol-5-ylmethyl)-3-(trifluoromethyl)pyrazol-4-yl]imidazole-2-carboxamide], the IC90 was 1030 nM.
Next, `Cn1c(-c2cn(CC(C)(CO)CCl)nc2C(F)(F)F)cnc1C(=O)Nc1ccc(C(=O)N2CCN(C(=O)C3CCNCC3)CC2)c(Cl)c1` (stereo not shown) [Example 101, 5-[1-[2-(chloromethyl)-3-hydroxy-2-methylpropyl]-3-(trifluoromethyl)pyrazol-4-yl]-N-[3-chloro-4-[4-(piperidine-4-carbonyl)piperazine-1-carbonyl]phenyl]-1-methylimidazole-2-carboxamide;formic acid]: 733 nM; `CC(C)n1cc(-c2cnc(C(=O)Nc3ccc(C(=O)N4CCN(C(=O)C5CCNCC5)CC4)c(Cl)c3)n2C)c(C(F)(F)F)n1` [Example 102, N-[3-chloro-4-[4-(piperidine-4-carbonyl)piperazine-1-carbonyl]phenyl]-1-methyl-5-[1-propan-2-yl-3-(trifluoromethyl)pyrazol-4-yl]imidazole-2-carboxamide;hydrochloride]: 448 nM; `Cn1c(-c2cn(C(CO)CCl)nc2C(F)(F)F)cnc1C(=O)Nc1ccc(C(=O)N2CCN(C(=O)C3CCNCC3)CC2)c(Cl)c1` (stereo not shown) [Example 103, 5-[1-(1-chloro-3-hydroxypropan-2-yl)-3-(trifluoromethyl)pyrazol-4-yl]-N-[3-chloro-4-[4-(piperidine-4-carbonyl)piperazine-1-carbonyl]phenyl]-1-methylimidazole-2-carboxamide;hydrochloride]: 678 nM.
As for `Cn1c(-c2cn(CCC(C)(C)O)nc2C(F)(F)F)cnc1C(=O)Nc1ccc(C(=O)N2CCN(C(=O)C3CCNCC3)CC2)c(Cl)c1` [Example 104, N-[3-chloro-4-[4-(piperidine-4-carbonyl)piperazine-1-carbonyl]phenyl]-5-[1-(3-hydroxy-3-methylbutyl)-3-(trifluoromethyl)pyrazol-4-yl]-1-methylimidazole-2-carboxamide;hydrochloride], the IC90 came out at 1020 nM.
For `Cn1c(-c2cn(CC3(CO)CC(C)(Cl)C3)nc2C(F)(F)F)cnc1C(=O)Nc1ccc(C(=O)N2CCN(C(=O)C3CCNCC3)CC2)c(Cl)c1` (stereo not shown) [Example 105, 5-[1-[[3-chloro-1-(hydroxymethyl)-3-methylcyclobutyl]methyl]-3-(trifluoromethyl)pyrazol-4-yl]-N-[3-chloro-4-[4-(piperidine-4-carbonyl)piperazine-1-carbonyl]phenyl]-1-methylimidazole-2-carboxamide;hydrochloride], the IC90 stood at 1610 nM.
